Test results reported in ChEMBL document CHEMBL1201862, “PubChem BioAssay data set” (2004).
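All cell lines were grown in 96-well plates and treated with compound for 48 hours. Abbreviation: GI50, concentration required for 50% inhibition of growth.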 The source made the active and inactive calls. No stated cut-off is given here; in the data, active = GI50 up to about 1.1 µM and inactive = higher.

Key:
Assay in all cases: DTP human tumour cell line panel, 48 h
[1] = system: 786-0
[2] = system: A498
[3] = system: A549
[4] = system: ACHN
[5] = system: CCRF-CEM
[6] = system: COLO 205
[7] = system: DU-145
[8] = system: EKVX
[9] = system: HCC 2998
[10] = system: HCT-116
[11] = system: HCT-15
[12] = system: HL-60
[13] = system: HOP-62
[14] = system: HOP-92
[15] = system: HT-29
[16] = system: Hs-578T
[17] = system: K562
[18] = system: KM12
[19] = system: LOX IMVI
[20] = system: M14
[21] = system: MCF7
[22] = system: MDA-MB-231
[23] = system: MDA-MB-435
[24] = system: MDA-N
[25] = system: MOLT-4
[26] = system: Malme-3M
[27] = system: NCI-H226
[28] = system: NCI-H23
[29] = system: NCI-H460
[30] = system: NCI/ADR-RES
[31] = system: OVCAR-4
[32] = system: OVCAR-5
[33] = system: OVCAR-8
[34] = system: PC-3
[35] = system: RPMI-8226
[36] = system: RXF 393
[37] = system: SF-268
[38] = system: SF-295
[39] = system: SF-539
[40] = system: SK-MEL-28
[41] = system: SK-MEL-2
[42] = system: SK-MEL-5
[43] = system: SK-OV-3
[44] = system: SN12C
[45] = system: SNB-19
[46] = system: SR
[47] = system: SW-620
[48] = system: TK-10
[49] = system: U-251
[50] = system: UACC-257
[51] = system: UACC-62
[52] = system: UO-31
[53] = system: CAKI-1
[54] = system: IGROV-1
[55] = system: NCI-H522
[56] = system: OVCAR-3
[57] = system: SNB-75
[58] = system: T47D

## Cc1nc2c(O)cc3c4c(=O)n(C)c(=O)n(C)c4n(Cc4ccccc4)c3c2nc1C
[1]
  GI50: 17 µM (inactive)
[2]
  GI50: 33 µM (inactive)
[3]
  GI50: 19.2 µM (inactive)
[4]
  GI50: 17.9 µM (inactive)
[5]
  GI50: 4.99 µM (inactive)
[6]
  GI50: 13.3 µM (inactive)
[7]
  GI50: 18.3 µM (inactive)
[8]
  GI50: 24.3 µM (inactive)
[9]
  GI50: 22.7 µM (inactive)
[10]
  GI50: 14.4 µM (inactive)
[11]
  GI50: 17.9 µM
[12]
  GI50: 24.2 µM (inactive)
[13]
  GI50: 17.6 µM (inactive)
[14]
  GI50: 13.8 µM (inactive)
[15]
  GI50: 15.8 µM (inactive)
[16]
  GI50: 26.5 µM (inactive)
[17]
  GI50: 34.1 µM (inactive)
[18]
  GI50: 21.2 µM (inactive)
[19]
  GI50: 18.9 µM (inactive)
[20]
  GI50: 17.6 µM (inactive)
[21]
  GI50: 15.8 µM (inactive)
[22]
  GI50: 20.4 µM (inactive)
[23]
  GI50: 17.4 µM (inactive)
[24]
  GI50: 18.4 µM (inactive)
[25]
  GI50: 24.5 µM (inactive)
[26]
  GI50: 18.7 µM (inactive)
[27]
  GI50: 21.6 µM (inactive)
[28]
  GI50: 19.3 µM (inactive)
[29]
  GI50: 45.8 µM (inactive)
[30]
  GI50: 25.8 µM (inactive)
[31]
  GI50: 11.1 µM (inactive)
[32]
  GI50: 22.6 µM (inactive)
[33]
  GI50: 18.3 µM (inactive)
[34]
  GI50: 16.7 µM (inactive)
[35]
  GI50: 19.1 µM (inactive)
[36]
  GI50: 13.2 µM (inactive)
[37]
  GI50: 17.6 µM (inactive)
[38]
  GI50: 50.5 µM (inactive)
[39]
  GI50: 16 µM (inactive)
[40]
  GI50: 14.3 µM (inactive)
[41]
  GI50: 18 µM (inactive)
[42]
  GI50: 18.1 µM (inactive)
[43]
  GI50: 17.1 µM (inactive)
[44]
  GI50: 19.9 µM (inactive)
[45]
  GI50: 18.6 µM (inactive)
[46]
  GI50: 24.4 µM (inactive)
[47]
  GI50: 19.5 µM (inactive)
[48]
  GI50: 17.6 µM (inactive)
[49]
  GI50: 18.3 µM (inactive)
[50]
  GI50: 18.4 µM (inactive)
[51]
  GI50: 18.2 µM (inactive)
[52]
  GI50: 17.6 µM (inactive)

## CN(C)C1C(=O)C(C(N)=O)=C(O)C2(O)C(O)=C3C(=O)c4c(O)cccc4C(C)(O)C3CC12 (centres undefined)
[2]
  GI50: 43.8 µM (inactive)
[3]
  GI50: 60.8 µM (inactive)
[53]
  GI50: 38.7 µM (inactive)
[7]
  GI50: 68.4 µM (inactive)
[11]
  GI50: 50.5 µM
[14]
  GI50: > 100 µM (inactive)
[54]
  GI50: 52.8 µM (inactive)
[18]
  GI50: 73.8 µM (inactive)
[19]
  GI50: 33.7 µM (inactive)
[26]
  GI50: 67.3 µM (inactive)
[27]
  GI50: 82.6 µM (inactive)
[29]
  GI50: 52 µM (inactive)
[55]
  GI50: 78 µM (inactive)
[30]
  GI50: 76.4 µM (inactive)
[32]
  GI50: > 100 µM (inactive)
[34]
  GI50: > 100 µM (inactive)
[36]
  GI50: 43.6 µM (inactive)
[40]
  GI50: 93.5 µM (inactive)
[43]
  GI50: 76.6 µM (inactive)
[50]
  GI50: > 100 µM (inactive)

## CC1(C)OP(=O)(c2ccccc2)C=C1Br (centres undefined)
[1]
  GI50: > 100 µM (inactive)
[2]
  GI50: > 100 µM (inactive)
[3]
  GI50: > 100 µM (inactive)
[4]
  GI50: > 100 µM (inactive)
[53]
  GI50: > 100 µM (inactive)
[6]
  GI50: > 100 µM (inactive)
[7]
  GI50: > 100 µM (inactive)
[8]
  GI50: > 100 µM (inactive)
[9]
  GI50: > 100 µM (inactive)
[10]
  GI50: > 100 µM (inactive)
[11]
  GI50: > 100 µM
[12]
  GI50: 21 µM (inactive)
[13]
  GI50: > 100 µM (inactive)
[14]
  GI50: > 100 µM (inactive)
[15]
  GI50: > 100 µM (inactive)
[16]
  GI50: > 100 µM (inactive)
[54]
  GI50: > 100 µM (inactive)
[17]
  GI50: > 100 µM (inactive)
[18]
  GI50: > 100 µM (inactive)
[19]
  GI50: > 100 µM (inactive)
[20]
  GI50: > 100 µM (inactive)
[23]
  GI50: > 100 µM (inactive)
[24]
  GI50: > 100 µM (inactive)
[26]
  GI50: > 100 µM (inactive)
[27]
  GI50: > 100 µM (inactive)
[28]
  GI50: > 100 µM (inactive)
[29]
  GI50: > 100 µM (inactive)
[55]
  GI50: > 100 µM (inactive)
[30]
  GI50: > 100 µM (inactive)
[56]
  GI50: > 100 µM (inactive)
[31]
  GI50: > 100 µM (inactive)
[32]
  GI50: > 100 µM (inactive)
[33]
  GI50: > 100 µM (inactive)
[34]
  GI50: > 100 µM (inactive)
[35]
  GI50: 0.348 µM (active)
[37]
  GI50: > 100 µM (inactive)
[38]
  GI50: > 100 µM (inactive)
[39]
  GI50: > 100 µM (inactive)
[40]
  GI50: > 100 µM (inactive)
[41]
  GI50: > 100 µM (inactive)
[42]
  GI50: > 100 µM (inactive)
[43]
  GI50: > 100 µM (inactive)
[44]
  GI50: > 100 µM (inactive)
[45]
  GI50: > 100 µM (inactive)
[57]
  GI50: > 100 µM (inactive)
[46]
  GI50: > 100 µM (inactive)
[47]
  GI50: > 100 µM (inactive)
[58]
  GI50: > 100 µM (inactive)
[48]
  GI50: > 100 µM (inactive)
[49]
  GI50: > 100 µM (inactive)
[50]
  GI50: > 100 µM (inactive)
[51]
  GI50: > 100 µM (inactive)
